Data reported in patent publication US5714479A, “Endothelin antagonistic heteroaromatic ring-fused cyclopentene derivatives” (Banyu Pharmaceutical Co., Ltd., priority 1993, dated 1998).

Tests used:
[1] = system: isolated rabbit iliac arteries; test: Activities against endothelin-induced contraction of isolated rabbit iliac arteries
Procedure: Activities against endothelin-induced contraction of isolated rabbit iliac arteries
The iliac artery of rabbit was isolated, and a spiral preparation having a width of 1 mm and a length of 10 mm was prepared therefrom. The preparation having the endothelial cells denuded, was placed in a 5 ml organ bath filled with a Krebs.Henseleit solution saturated with a gas mixture of 95% O2 and 5% CO2, and a change in the tension was isometrically measured and recorded.
(§1) Endothelin-1 was added into the organ bath in a cumulatively increasing manner, whereby the influence of a compound of the present invention to the concentration-response curve for endothelin-1 was examined. The compound was added into the organ bath 20 minutes prior to the addition of endothelin-1.

[2] = system: isolated porcine coronary arteries; test: Activities against endothelin-induced contraction of isolated porcine coronary arteries; set-up: species or system pig
Procedure: Activities against endothelin-induced contraction of isolated porcine coronary arteries
The coronary artery of pig was extracted, and a spiral preparation having a width of 1 mm and a length of 10 mm was prepared therefrom. The preparation having the endothelial cells denuded, was hanged in a 5 ml organ bath filled with a Krebs.Heneseleit solution saturated with a gas mixture of 95% O2 and 5% CO2, and a change in the tension was isometrically measured and recorded.
as §1

[3] = system: ETB receptor; test: Endothelin binding inhibition test to ETB receptor (porcine cerebellum membranes, 125I-endothelin-1); conditions: at 1.1 μM
Procedure: Endothelin binding inhibition test to ETB receptor
The cerebellum of porcine was homogenized in a buffer solution of 10 mM MOPS, pH 7.4, at 4° C. by a polytron. To the homogenate, sucrose was added to a concentration of 20%, and the mixture was centrifuged at 1,000×g for 15 minutes, and the supernatant was further centrifuged at 10,000×g for 15 minutes. The supernatant thereof was further centrifuged at 90,000×g for 40 minutes. The membrane precipitate thereby obtained was suspended in a buffer solution of 5 mM HEPES/Tris, pH 7.4, at a concentration of 3.3 mg/ml.
(§2) Then, 16 μl of this membrane suspension was added to 340 μl of 50 mM tris/HCl buffer, pH 7.4, containing […] calcium chloride, 10 μM magnesium chloride, 0.1 mM PMSF, 1 μM pepstatin A, 2 μM leupeptin, 1 mM 1,10-phenanthroline and 0.1% bovine serum albumin. To this suspension, 4 μl of (A) endothelin-1 (for nonspecific binding; 0.2 μM as the final concentration), (B) buffer solution A (for total control binding), or (C) a test compound (1.1 μM as the final concentration), was added. Further, to each suspension, 40 μl of ^125 I-endothelin-1 (12000-18000 cpm) was added. […] Then, the radioactivity trapped by the glass filter was measured, and the ^125 I-endothelin-1 binding inhibition D (%) at 1.1 μM of the test compound was determined by the following equation. […]

[4] = system: human ETA receptor; test: Endothelin binding inhibition test to human ET receptor (ETA); conditions: 1.1 μM; human cell membranes (SK-N-MC or Girardi heart cells)
Procedure: (§3) Endothelin binding inhibition test to human ET receptor
(§4) The human neuroblastoma SK-N-MC cells or the human Girardi heart cells purchased from Dainippon Seiyaku (Japan) were cultured in minimal essential medium supplemented with fetal calf serum. The cells were collected and homogenized in 10 mM MOPS buffer (pH 7.4) containing 154 mM NaCl, 10 mM KCl, 0.8 mM CaCl2 and 20% sucrose at 4° C. using a polytron homogenizer. The homogenate was then centrifuged at 1,000×gfor 15 minutes. The supernatant was centrifuged at 100,000×g for 1 hour at 4° C. Then the pellet was washed with 5 mM Hepes/Tris buffer (pH 7.4). The resulting membranes were incubated with [^125 I]endothelin-1 in the presence of each test compound or vehicle (1% dimethyl sulfoxide) in 50 mM Tris/HCl buffer (pH 7.4) containing 0.1 mM phenylmethanesulfonyl fluoride, 1 μM pepstatin, 2 μM leupeptin, 1 mM 1,10-phenanthroline, 1 mM EDTA, 10 μM CaCl2, 10 μM MgCl2 and 0.1% BSA in a total volume of 0.4 ml. After 4 hours incubation, cold 5 mM Hepes/Tris buffer (pH 7.4) containing 0.3% BSA (Buffer A) was added to the mixture. Free and bound [^125 I]endothelin-1 were separated by filtration using Whatman GF/C glass fiber filters. After the filtration, the filters were washed with buffer A, and the radioactivity on the filters was measured in a γ counter. Nonspecific binding was determined in the presence of 200 nM endothelin-1. […]

[5] = system: ETA receptor; test: Endothelin binding inhibition test to ETA receptor (porcine aorta smooth muscle membranes, 125I-endothelin-1); conditions: at 1.1 μM
Procedure: Endothelin binding inhibition test to ETA receptor
The smooth muscle tissue of porcine aorta was homogenized in a buffer solution of 10 mM MOPS, pH 7.4, at 4° C. by a polytron. To the homogenate, sucrose was added to a concentration of 20%, and the mixture was centrifuged at 1,000×g for 15 minutes, and the supernatant was further centrifuged at 10,000×g for 15 minutes. The supernatant thereof was further centrifuged at 90,000×g for 40 minutes. The membrane precipitate thereby obtained was suspended in a buffer solution of 5 mM HEPES/Tris, pH 7.4, at a concentration of 25 mg/ml.
as §2

[6] = system: human ETB receptor; test: Endothelin binding inhibition test to human ET receptor (ETB); conditions: 1.1 μM; human cell membranes (SK-N-MC or Girardi heart cells)
Procedure: as §3, §4

[7] = 0.1 to 10 μM, rabbit iliac artery

Row | Structure (SMILES) | effect on the isolated artery when applied alone [1] | effect on maximum response to endothelin-1 [1, 7] | influence on the concentration-response curve for endothelin-1 [1, 7] | effect on the isolated artery when applied alone [2] | influence on the concentration-response curve for endothelin-1 ([2]; 10 μM, added 20 minutes prior to endothelin-1, porcine coronary artery) | effect on maximum response to endothelin-1 ([2]; 10 μM, porcine coronary artery) | 125I-endothelin-1 binding inhibition D (%) to ETB [3] [%] | Percent (%) inhibition of [125I]ET-1 specific binding to ETA [4] [%] | 125I-endothelin-1 binding inhibition D (%) to ETA [5] [%] | Percent (%) inhibition of [125I]ET-1 specific binding to ETB [6] [%]
1 | COc1ccc([C@H]2c3ncccc3[C@@H](c3ccc4c(c3)OCO4)[C@@H]2C(=O)O)cc1 (relative stereo) [Compound 2, (5RS,6SR,7SR)-6-Carboxy-5-(3,4-methylenedioxyphenyl)-7-(4-methoxyphenyl)cyclopenteno[1,2-b]pyridine] | showed no effects to the isolated iliac artery when applied alone | did not affect the maximum response | remarkably shifted the concentration-response curves of endothelin-1 to the right | showed no effects to the isolated coronary artery when applied alone | remarkably shifted the concentration-response curves of endothelin-1 to the right | did not affect the maximum response |  |  |  | 
2 | COc1ccc([C@H]2c3ncccc3[C@@H](c3ccc4c(c3)OCO4)[C@@H]2C(=O)O)cc1 (relative stereo) [Compound 2-enantiomer A] |  |  |  |  |  |  | 80 | 99 | 99 | 80
